Where “and” joins values, the source holds several entries; their conditions need not be identical. Equal values may be shown once. Entries after “also recorded” stand apart in the source; their conditions may differ. Read-outs that look alike come from different tables or passages of the source.

The target in series [1] is T1, human erythrocyte acetylcholinesterase (AChE) (Homo sapiens, UniProt P22303).
T1 construct: from tissue; host or cells: haemolysed erythrocytes of healthy human donors
In words: biochemical. How it is done: (§1) Blood samples were obtained from healthy donors from the Voievodal Specialized Hospital in Łódź, Poland (Wojewódzki Specjalistyczny Szpital im. Dr W. Biegańskiego w Łodzi). The blood was collected into vacuum tubes containing sodium citrate. Erythrocytes were separated from plasma by centrifugation (3000 × g, 10 min, 20 °C) with a Micro 22 R centrifuge (Hettich ZENTRIFUGEN, Tuttlingen, Germany) and washed three times with 0.9% saline. Afterwards, red cells were haemolysed by freezing and stored at a temperature of –30 °C; before each experiment, they were restored at 37° C for 15 min and used to determine AChE activity. […] The studies on the biological material were approved by the Bioethics Committee of the Medical University of Lodz (RNN/27/18/KE).
(§2) The activity of both cholinesterases (AChE and BuChE) were conducted using a spectrophotometric method developed by Ellman with previously described modifications[25]^,[30]. […] 400-fold diluted solution of haemolysed erythrocytes or diluted plasma (200 times) was incubated for 15 min (37° C) with DTNB and tested compound at an appropriate concentration, and the reaction was started by addition of substrate (ATC or BTC). The final volume of a sample was 500 µL.
(§3) AChE Selectivity Index (SI) was calculated with the aid of the following formula: SI = IC50 of BChE/IC50 of AChE. In turn BuChE SI was defined as IC50 of AChE/IC50 of BChE. Linear regression (Hanes–Woolf plots) were used to estimate the maximal velocity (Vmax) and the Michaelis constant (Km).

The target in series [2] is T2, human plasma butyrylcholinesterase (BuChE) (Homo sapiens, UniProt P06276).
T2 construct: Plasma for determination of BuChE activity was obtained by centrifuging the blood; from tissue; host or cells: plasma of healthy human donors
In words: biochemical. How it is done:
as §1, §2, §3

The target of series [3] is T1, human erythrocyte acetylcholinesterase (AChE). In words: Kinetic parameters and type of AChE inhibition (Hanes–Woolf). It counts as biochemical. The note with it: for Vmax(i) AChE: mean ± SD. How it is done: (§4) The absorbance was recorded at λ = 436 nm using a CECIL 2021 spectrophotometer (CECIL Instruments Limited, Cambridge, UK) with a thermostatic water flow (temperature 37° C).
as §3
(§5) To establish the type of inhibition, additional experiments were conducted with various concentrations of substrates (ATC, BTC), and the kinetic parameters of the enzymatic reactions were obtained using Hanes–Woolf equation, which is a graphical representation of enzyme kinetics in which the ratio of the initial substrate concentration [S] to the reaction velocity v is plotted against [S]. […]

In series [4] the target is T2, human plasma butyrylcholinesterase (BuChE). The series can be described thus: Kinetic parameters and type of BuChE inhibition (Hanes–Woolf). It is filed as biochemical. The note with it: for Vmax(i) BuChE: mean ± SD. How it is done: as §4, §3, §5
Another series deals with T3, BuChE (Homo sapiens, UniProt P06276).
T3 construct: Plasma for determination of BuChE activity was obtained by centrifuging the blood; from tissue; host or cells: plasma of healthy human donors
In words: BuChE inhibition with excess of substrate (BTC). It counts as biochemical. The note with it: for inhibition at 375 µM: compound at 375 µmol/L.

Another series concerns the target T4, Aβ42 peptide (Homo sapiens, UniProt P05067).
T4 construct: Beta-amyloid (Aβ 1–42) aggregation studies were conducted using SensoLyte ThT Aβ42 Aggregation kit; purchased AnaSpec, Inc, Fremont, CA
The series can be described thus: Beta-amyloid (Aβ 1–42) aggregation, SensoLyte ThT kit. It is filed as biochemical. How it is done:
Beta-amyloid (Aβ 1–42) aggregation studies were conducted using SensoLyte ThT Aβ42 Aggregation kit (AnaSpec, Inc, Fremont, CA). Aβ42 peptide was dissolved in cold (4 °C) assay buffer and left to hydrate for a few minutes. The solution was spined at 10,000 rpm for 5 min at 4 °C to centrifuge out any precipitated material. […] The final volume of the test samples was 100 µL. Simultaneously, the positive control and negative control containing morin at the final concentration of 100 µmol/L were established. […] The measurements of fluorescence intensity expressed as relative fluorescence units (RFU) were taken for 90 min with 5 min intervals. The fluorescence intensity measured for positive control equals 100% of Aβ aggregation and was used for estimation of inhibition properties of tested biguanides.
Statistical analysis of data obtained in Aβ aggregation assay was conducted with a commercially available package (GraphPad Prism 5, La Jolla, CA). The results were expressed as the mean ± standard deviation (SD) of measurements conducted in triplicates or quadruplicates. One or two-way ANOVA and subsequent post hoc tests were used for intergroup comparisons. The results were considered significant at p values lower than 0.05.

Series [5] in a line: Intracellular uptake in in vitro cellular model (unpublished data). It counts as in vitro ADME. The note with it: depending on the cell line.
The test system of series [6] is human umbilical vein endothelial cells (HUVECs). In words: HUVEC viability and integrity, real-time electrical impedance system (unpublished data). It is filed as cell-based. How it is done:
At lower concentrations of substrate, BuChE activity is related to Michaelis–Menten kinetics and its enzymatic activity is based on the formation of an enzyme–substrate complex [ES]. At higher substrate levels (> 1 mM) BuChE presents greater activity related to the formation of a substrate-activated complex [SES][33]. […] This fact is of vital importance when studying BuChE inhibitors as in vivo the concentration of ACh in the synaptic cleft is estimated to be about 5 mM^33, which imply that substrate activated form of BuChE is present in the synaptic cleft.

For another series, the target named is T5, AChE (Homo sapiens, UniProt P22303).
T5 construct: 400-fold diluted solution of haemolysed erythrocytes or diluted plasma (200 times) was incubated; from tissue; host or cells: haemolysed erythrocytes of healthy human donors
It is filed as biochemical.

The test system of a further series is erythrocytes. The note with it: 6–1500 μmol/L; cited from earlier work.
Series [7] deals with T2, human plasma butyrylcholinesterase (BuChE). The note with it: published previously; cited from earlier work.

T1 sequence (P22303 other isoform, or with tags, fused parts or gaps): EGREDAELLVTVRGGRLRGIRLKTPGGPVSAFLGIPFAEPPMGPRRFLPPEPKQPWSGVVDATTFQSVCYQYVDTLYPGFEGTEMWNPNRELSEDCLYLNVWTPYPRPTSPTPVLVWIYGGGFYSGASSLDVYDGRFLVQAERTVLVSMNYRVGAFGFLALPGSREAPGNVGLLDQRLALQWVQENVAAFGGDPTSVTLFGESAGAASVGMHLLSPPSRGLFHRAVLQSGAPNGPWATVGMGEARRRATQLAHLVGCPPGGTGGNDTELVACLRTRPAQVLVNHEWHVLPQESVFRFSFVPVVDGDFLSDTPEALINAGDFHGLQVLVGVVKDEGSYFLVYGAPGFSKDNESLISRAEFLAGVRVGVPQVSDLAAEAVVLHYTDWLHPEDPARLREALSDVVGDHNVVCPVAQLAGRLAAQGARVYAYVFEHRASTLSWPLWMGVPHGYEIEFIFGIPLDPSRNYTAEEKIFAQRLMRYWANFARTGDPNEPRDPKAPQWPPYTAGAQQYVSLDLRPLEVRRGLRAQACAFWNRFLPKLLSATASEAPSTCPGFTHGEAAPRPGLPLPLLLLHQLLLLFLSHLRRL
T4 sequence (P05067 672-713): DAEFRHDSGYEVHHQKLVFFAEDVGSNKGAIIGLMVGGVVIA
T3 sequence (P06276 29-602): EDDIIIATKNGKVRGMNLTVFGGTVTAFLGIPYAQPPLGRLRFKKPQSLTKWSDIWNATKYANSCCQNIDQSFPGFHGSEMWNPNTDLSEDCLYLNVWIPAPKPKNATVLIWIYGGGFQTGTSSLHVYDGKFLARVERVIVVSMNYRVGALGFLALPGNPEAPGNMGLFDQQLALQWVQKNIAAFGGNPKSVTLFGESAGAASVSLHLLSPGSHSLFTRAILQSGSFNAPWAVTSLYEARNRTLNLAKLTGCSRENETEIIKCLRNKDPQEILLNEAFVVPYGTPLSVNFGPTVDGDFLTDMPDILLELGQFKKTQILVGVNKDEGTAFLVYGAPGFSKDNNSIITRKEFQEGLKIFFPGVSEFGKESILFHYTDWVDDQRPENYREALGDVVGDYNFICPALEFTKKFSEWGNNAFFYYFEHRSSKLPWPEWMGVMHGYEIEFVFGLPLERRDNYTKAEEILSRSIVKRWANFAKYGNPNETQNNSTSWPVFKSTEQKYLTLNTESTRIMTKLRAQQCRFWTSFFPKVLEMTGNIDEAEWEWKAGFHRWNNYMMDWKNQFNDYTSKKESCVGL
T2 sequence (P06276 29-602): as above
T5 sequence (P22303 other isoform, or with tags, fused parts or gaps): as the sequence (P22303 other isoform, or with tags, fused parts or gaps) above

Consider `CN(C)C(=N)N=C(N)NS(=O)(=O)c1ccc(C(F)(F)F)cc1[N+](=O)[O-]` [Compound 5], for which, in series [1] (IC50 BChE/IC50 AChE), the “SI AChE” value was 3.23. Testing at 150 µM in series [1] (compound at 150.0 µmol/L) gave an inhibition of 35 ± 7.18%. The IC50 (usually the midpoint of a concentration-inhibition curve) in series [1] (human erythrocyte AChE, mean ± SD of three independent experiments) was 212 ± 48.3 µM; in series [2] (human plasma BuChE, mean ± SD of three independent experiments), 686 ± 86.4 µM. Moreover, the “SI BuChE” value in series [2] (IC50(AChE)/IC50(BChE)) stood at 0.31. Besides, the “I: type of inhibition, AChE” value in series [3] is “M (M: mixed type)”. Moreover, the “type of AChE inhibition” value in series [3] is listed as “mixed-type; also recorded: mixed inhibition; also recorded: mixed way”; on AChE (at 1/2 IC50 for AChE), “mixed-type”. Moreover, the “vmax AChE, mean ± SD” value in [3] (B: inhibitor at 1/3 of IC50) worked out at 175.32 ± 33.25 mA/min; in [3] (C: inhibitor at IC50), 146.12 ± 40.50 mA/min. Moreover, the “Vmax(i) AChE” value is recorded as 0.175 ± 0.033 A/min in series [3] (B: inhibitor at 1/3 of IC50) and 0.146 ± 0.040 A/min in [3] (C: inhibitor at IC50). Moreover, the “vmax AChE, individual experiments B1–B3” value in [3] (inhibitor at 1/3 of IC50) is 183.000 mA/min and 204.073 mA/min and 138.914 mA/min. In addition, the “vmax AChE, individual experiments C1–C3” value in series [3] (inhibitor at IC50) was 173.750 mA/min and 165.000 mA/min and 99.631 mA/min. Moreover, the “I: type of inhibition, BuChE” value in series [4] is “M (M: mixed type)”. Besides, in series [4], the “type of BuChE inhibition” value is “mixed inhibition; also recorded: mixed manner; also recorded: Mixed type”. The “vmax BuChE, mean ± SD” value in series [4] (B: inhibitor at 1/3 of IC50) is recorded as 242.44 ± 12.47 mA/min; in [4] (C: inhibitor at IC50), 202.78 ± 2.42 mA/min. The “Vmax(i) BuChE” value in series [4] (B: inhibitor at 1/3 of IC50) was found to be 0.242 ± 0.012 A/min; in [4] (C: inhibitor at IC50) it was 0.202 ± 0.002 A/min. Besides, in series [4] (inhibitor at 1/3 of IC50), the “vmax BuChE, individual experiments B1–B3” value was 243.730 mA/min and 229.384 mA/min and 254.233 mA/min. In addition, the “vmax BuChE, individual experiments C1–C3” value in series [4] (inhibitor at IC50) is 204.771 mA/min and 200.088 mA/min and 203.508 mA/min. The “BuChE inhibition, maximal” value at BuChE (BTC 2.5 μmol/mL, various compound concentrations (Figure 8B)) is “up to 31.89 ± 6.22%”. Moreover, the inhibition – broadly, the relative decrease from the control value, in per cent – at 375 µM was 27.5 ± 8.61% against BuChE (BTC 0.75 mmol/L) and at most 15.6% against BuChE (BTC 2.5 mmol/L). The “activity vs morin 100 µmol/L” value on Aβ42 peptide (100 µmol/L, two-way ANOVA) was “significantly lower in comparison with morin”. The “inhibitory property vs morin 100 µmol/L” value on Aβ42 peptide (200 µmol/L, two-way ANOVA, p > 0.05) was “comparable with those of morin”. Moreover, the inhibition at 200 µM at Aβ42 peptide (200 µmol/L, vs control) is around 20%. Moreover, at Aβ42 peptide (100 and 200 µmol/L, after 60 min of reaction initiation), the “Aβ aggregation decreased up to” value is recorded as around 80%. Also, the “intracellular uptake relative to metformin” value in series [5] is reported as 70–80 fold. In [6] (300 μmol/L, 12–72 h of incubation), the “decrease in HUVEC adhesion and viability” value is listed as around 20%. For the same compound, in series [6] (6–100 μmol/L), the “effect on HUVEC viability” value is reported as “did not affect cell viability”. Also, on AChE (each at 1/2 IC50 for AChE: metformin 1175, donepezil 0.0125, compound 5 106.0 µmol/L, alone or in mixture), the “Vmax AChE” value was determined as 0.206 ± 0.008 A/min. The “erythrocytes membrane disintegration” value in the series on erythrocytes was “does not contribute to the erythrocytes membrane disintegration”.

Consider `[H]/N=C(/N)N/C(=N/[H])NCCc1ccccc1` [Phenformin, phenformin, reference compound], for which, in [2] (at 150 µmol/L), testing at 150 µM gave an inhibition of 44.7 ± 1.23%. The IC50 in series [7] is 259 ± 31 µM.
